According to patent publication US11180474B2 (BRISTOL-MYERS SQUIBB COMPANY, priority 2016, dated 2021):

Tests used:
[1] = biological target: T1, human TLR7 (Homo sapiens, UniProt Q9NYK1); experiment: TLR7 inhibition reporter assay (HEK-Blue cells, SEAP reporter, gardiquimod stimulation); assay type: cell-based; settings: HEK-Blue cells overexpressing human TLR7, gardiquimod 7.5 μM
T1 construct: host or cells: HEK-Blue cells
T1 sequence (Q9NYK1 27-1049): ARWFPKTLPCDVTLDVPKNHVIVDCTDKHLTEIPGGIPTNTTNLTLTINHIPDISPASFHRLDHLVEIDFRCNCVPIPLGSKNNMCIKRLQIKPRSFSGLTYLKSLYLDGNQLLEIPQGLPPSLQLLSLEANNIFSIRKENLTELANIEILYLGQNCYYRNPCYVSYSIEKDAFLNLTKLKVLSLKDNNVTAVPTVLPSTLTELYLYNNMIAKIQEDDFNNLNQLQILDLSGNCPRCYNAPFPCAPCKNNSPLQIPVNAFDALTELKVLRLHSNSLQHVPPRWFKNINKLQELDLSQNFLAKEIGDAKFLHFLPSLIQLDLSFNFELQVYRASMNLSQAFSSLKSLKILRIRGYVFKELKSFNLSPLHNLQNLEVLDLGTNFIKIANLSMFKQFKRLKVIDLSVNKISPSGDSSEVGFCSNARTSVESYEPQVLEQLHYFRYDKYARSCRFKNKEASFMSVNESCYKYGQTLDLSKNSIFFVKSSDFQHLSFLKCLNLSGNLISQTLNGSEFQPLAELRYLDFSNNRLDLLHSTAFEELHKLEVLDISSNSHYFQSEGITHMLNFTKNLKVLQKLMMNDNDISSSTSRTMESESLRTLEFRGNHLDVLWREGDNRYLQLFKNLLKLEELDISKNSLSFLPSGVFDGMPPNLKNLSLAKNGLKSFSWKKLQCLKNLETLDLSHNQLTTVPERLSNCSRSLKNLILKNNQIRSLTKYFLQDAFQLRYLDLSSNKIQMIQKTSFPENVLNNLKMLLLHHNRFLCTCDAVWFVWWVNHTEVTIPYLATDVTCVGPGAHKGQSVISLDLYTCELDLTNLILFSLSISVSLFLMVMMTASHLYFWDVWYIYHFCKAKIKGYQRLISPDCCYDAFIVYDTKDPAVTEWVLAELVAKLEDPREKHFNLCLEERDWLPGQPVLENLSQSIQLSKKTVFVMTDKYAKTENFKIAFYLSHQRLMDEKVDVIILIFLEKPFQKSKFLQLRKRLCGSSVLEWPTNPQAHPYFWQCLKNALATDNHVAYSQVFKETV
In short: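 HEK-Blue reporter cells (15,000/well TLR7, 20,000 TLR8) exposed to compound over 0.05 nM–50 μM, agonist-stimulated (R848 for TLR8, gardiquimod for TLR7), 22 h at 37 °C, 5% CO2. SEAP read with HEK-Blue Detection; % inhibition relative to agonist-plus-DMSO and known-inhibitor controls.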

[2] = biological target: T2, human TLR9 (Homo sapiens, UniProt Q9NR96); experiment: TLR9 inhibition reporter assay (HEK-Blue cells, SEAP reporter, ODN2006 stimulation); assay type: cell-based; settings: HEK-Blue cells overexpressing human TLR9, ODN2006 5 nM
T2 construct: host or cells: HEK-Blue cells
T2 sequence (Q9NR96 26-1032): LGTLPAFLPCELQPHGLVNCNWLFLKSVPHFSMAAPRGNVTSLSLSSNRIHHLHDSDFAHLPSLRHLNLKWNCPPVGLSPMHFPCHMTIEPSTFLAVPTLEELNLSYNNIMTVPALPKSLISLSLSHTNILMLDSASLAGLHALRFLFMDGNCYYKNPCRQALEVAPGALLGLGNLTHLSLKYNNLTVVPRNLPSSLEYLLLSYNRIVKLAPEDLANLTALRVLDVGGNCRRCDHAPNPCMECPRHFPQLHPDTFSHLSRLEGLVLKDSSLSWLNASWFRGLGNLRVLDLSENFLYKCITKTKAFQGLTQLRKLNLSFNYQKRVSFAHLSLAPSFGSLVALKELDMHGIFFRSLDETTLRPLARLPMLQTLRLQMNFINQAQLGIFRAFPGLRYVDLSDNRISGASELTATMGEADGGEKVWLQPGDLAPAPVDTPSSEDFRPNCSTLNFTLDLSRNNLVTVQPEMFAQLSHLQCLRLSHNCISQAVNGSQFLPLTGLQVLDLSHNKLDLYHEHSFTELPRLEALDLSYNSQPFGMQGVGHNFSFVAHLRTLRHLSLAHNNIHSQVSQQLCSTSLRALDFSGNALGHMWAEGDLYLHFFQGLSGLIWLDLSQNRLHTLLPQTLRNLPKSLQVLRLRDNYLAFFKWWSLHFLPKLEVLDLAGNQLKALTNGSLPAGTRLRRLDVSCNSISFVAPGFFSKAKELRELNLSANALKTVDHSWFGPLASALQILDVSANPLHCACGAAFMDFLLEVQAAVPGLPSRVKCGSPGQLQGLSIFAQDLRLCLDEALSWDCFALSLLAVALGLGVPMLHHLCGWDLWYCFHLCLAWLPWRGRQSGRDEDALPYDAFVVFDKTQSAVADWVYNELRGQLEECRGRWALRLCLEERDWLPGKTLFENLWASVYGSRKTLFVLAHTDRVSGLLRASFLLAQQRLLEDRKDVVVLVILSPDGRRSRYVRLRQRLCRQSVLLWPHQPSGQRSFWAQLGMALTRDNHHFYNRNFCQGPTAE
In short: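 Agonists used: gardiquimod 7.5 μM (TLR7), R848 15.9 μM (TLR8), ODN2006 5 nM (TLR9), added after 30 min room-temperature compound pre-treatment (0.05 nM–50 μM) of receptor-overexpressing HEK-Blue cells. SEAP reporter (NF-κB/AP-1 driven) read after 22 h at 37 °C; inhibition scaled between agonist+DMSO and reference-inhibitor wells.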

| Compound | IC50 [1] [nM] | IC50 [2] [nM] |
| --- | --- | --- |
| CCC(C)CN1CCC(N2CCC(c3ccc4[nH]c(-c5ccc(OC)c(OC)c5)c(C)c4c3)CC2)CC1 (stereo not drawn) [Example 51, 2-(3,4-dimethoxyphenyl)-3-methyl-5-(1′-(2-methylbutyl)-[1,4′-bipiperidin]-4-yl)-1H-indole] | 240 | 89 |
| CCC(CC)CN1CCC(N2CCC(c3ccc4[nH]c(-c5ccc(OC)c(OC)c5)c(C)c4c3)CC2)CC1 [Example 54, 2-(3,4-dimethoxyphenyl)-5-(1′-(2-ethylbutyl)-[1,4′-bipiperidin]-4-yl)-3-methyl-1H-indole] | 595 | 238 |
| COc1ccc(-c2[nH]c3ccc(C4CCN(C(=O)CN(C)C)CC4)cc3c2C2CCOCC2)cc1OC [Example 393, 1-(4-(2-(3,4-dimethoxyphenyl)-3-(tetrahydro-2H-pyran-4-yl)-1H-indol-5-yl)piperidin-1-yl)-2-(dimethylamino)ethan-1-one] | 248 | 4850 |
| COc1ccc(-c2[nH]c3ccc(C4CCN(Cc5cnc(C)[nH]5)CC4)cc3c2C)cc1OC [Example 4, 2-(3,4-dimethoxyphenyl)-3-methyl-5-(1-((2-methyl-1H-imidazol-5-yl)methyl)piperidin-4-yl)-1H-indole] | 3770 | 190 |
| CCc1c(-c2ccc(OC)c(OC)c2)[nH]c2ccc(C3CCN(C(=O)CNCC(C)O)CC3)cc12 (stereo not drawn) [Example 157, 1-(4-(2-(3,4-dimethoxyphenyl)-3-ethyl-1H-indol-5-yl)piperidin-1-yl)-2-((2-hydroxypropyl)amino)ethan-1-one] | 71 | 2840 |
| COc1ccc(-c2[nH]c3ccc(C4CCN(C5CCN(CCC(C)O)CC5)CC4)cc3c2C)cc1OC (stereo not drawn) [Example 56, 4-(4-(2-(3,4-dimethoxyphenyl)-3-methyl-1H-indol-5-yl)-[1,4′-bipiperidin]-1′-yl)butan-2-ol] | 409 | 217 |
| COc1ccc(-c2[nH]c3ccc(C4CCN(CCNC(=O)OC(C)(C)C)CC4)cc3c2C)cc1OC [Example 99, tert-butyl (2-(4-(2-(3,4-dimethoxyphenyl)-3-methyl-1H-indol-5-yl)piperidin-1-yl)ethyl)carbamate] | 938 | 1020 |
| COc1ccc(-c2[nH]c3ccc(C4CCN(C5CCN(C6CCCC(C(F)(F)F)C6)CC5)CC4)cc3c2C)cc1OC (stereo not drawn) [Example 73] | 5090 | 100 |
| COc1ccc(-c2[nH]c3ccc(C4CCNCC4)cc3c2C2CCOCC2)cc1OC [Example 389, 2-(3,4-dimethoxyphenyl)-5-(piperidin-4-yl)-3-(tetrahydro-2H-pyran-4-yl)-1H-indole] | 300 | 1640 |
| COc1ccc(-c2[nH]c3ccc(C4CCN(CC5CCOCC5)CC4)cc3c2C)cc1OC [Example 17, 2-(3,4-dimethoxyphenyl)-3-methyl-5-(1-((tetrahydro-2H-pyran-4-yl)methyl)piperidin-4-yl)-1H-indole] | 368 | 729 |
| COc1ccc(-c2[nH]c3ccc(C4CCN(Cc5ccccn5)CC4)cc3c2C)cc1OC [Example 28, 2-(3,4-dimethoxyphenyl)-3-methyl-5-(1-(pyridin-2-ylmethyl)piperidin-4-yl)-1H-indole] | 638 | 1010 |
| CCc1c(-c2ccc(OC)c(OC)c2)[nH]c2ccc(C3CCN(C(=O)CN4CCN(C(C)=O)CC4)CC3)cc12 [Example 171, 2-(4-acetylpiperazin-1-yl)-1-(4-(2-(3,4-dimethoxyphenyl)-3-ethyl-1H-indol-5-yl)piperidin-1-yl)ethan-1-one] | 488 | ≥ 50000 |
| COc1ccc(-c2[nH]c3ccc(C4CCN(CCN(C)C)CC4)cc3c2C)cc1OC [Example 415, 2-(4-(2-(3,4-dimethoxyphenyl)-3-methyl-1H-indol-5-yl)piperidin-1-yl)-N,N-dimethylethan-1-amine] | 2130 | 1070 |
| COc1ccc(-c2[nH]c3ccc(C4CCN(C5CCCN(C(C)C)CC5)CC4)cc3c2C)cc1OC (stereo not drawn) [Example 92, 2-(3,4-dimethoxyphenyl)-5-(1-(1-isopropylazepan-4-yl)piperidin-4-yl)-3-methyl-1H-indole] | 576 | 59 |
| COc1ccc(-c2[nH]c3ccc(C4CCN(Cc5ccc6ccccc6n5)CC4)cc3c2C)cc1OC [Example 35, 2-((4-(2-(3,4-dimethoxyphenyl)-3-methyl-1H-indol-5-yl)piperidin-1-yl)methyl)quinoline] | 2680 | 1430 |
| CCC(C)N1CCC(N2CCC(c3ccc4[nH]c(-c5ccc(OC)c(OC)c5)c(C)c4c3)CC2)CC1 (stereo not drawn) [Example 71, 5-(1′-(sec-butyl)-[1,4′-bipiperidin]-4-yl)-2-(3,4-dimethoxyphenyl)-3-methyl-1H-indole] | 537 | 97 |
| COc1ccc(-c2[nH]c3ccc(C4CCN(C5CCCN(CC(C)C)C5)CC4)cc3c2C)cc1OC (stereo not drawn) [Example 416, 2-(3,4-dimethoxyphenyl)-5-(1′-isobutyl-[1,3′-bipiperidin]-4-yl)-3-methyl-1H-indole] | 677 | 291 |
| COc1ccc(-c2[nH]c3ccc(C4CCN(CCN)CC4)cc3c2C)cc1OC [Example 100, 2-(4-(2-(3,4-dimethoxyphenyl)-3-methyl-1H-indol-5-yl)piperidin-1-yl)ethan-1-amine] | 175 | 543 |
| COc1ccc(-c2[nH]c3ccc(C4CCN(C5CCN(C(C)=O)CC5)CC4)cc3c2C)cc1OC [Example 12, 1-(4-(2-(3,4-dimethoxyphenyl)-3-methyl-1H-indol-5-yl)-[1,4′-bipiperidin]-1′-yl)ethan-1-one] | 1340 | 649 |
| COc1ccc(-c2[nH]c3ccc(C4CCN(C(=O)CN5CCCCC5C[C@@H]5CCCN5C)CC4)cc3c2C(C)C)cc1OC (stereo partly drawn) [Example 225, 1-(4-(2-(3,4-dimethoxyphenyl)-3-isopropyl-1H-indol-5-yl)piperidin-1-yl)-2-(2-(((S)-1-methylpyrrolidin-2-yl)methyl)piperidin-1-yl)ethan-1-one] | 445 | 3230 |
| COc1ccc(-c2[nH]c3ccc(C4CCN(Cc5cccc(NS(C)(=O)=O)c5)CC4)cc3c2C(C)C)cc1OC [Example 260, N-(3-((4-(2-(3,4-dimethoxyphenyl)-3-isopropyl-1H-indol-5-yl)piperidin-1-yl)methyl)phenyl)methanesulfonamide] | 64 | 2700 |
